Results reported in US9884857B2, “Salts of dasatinib in amorphous form” (BASF SE, priority 2013, dated 2018).

How the values were obtained:
[1] = 11 months of storage at room temperature (Example 1: closed glass vial)
Experimental: Powder X-Ray Diffraction:
The measurements are carried out with a Bruker D8 Advance powder X-ray diffractometer using Cu Kα radiation in the Bragg-Brentano reflection geometry. Generally, the 2θ values are accurate within an error of ±0.1-0.2°. The relative peak intensities can vary considerably for different samples of the same crystalline form because of different preferred orientations of the crystals. The samples are prepared without any special treatment other than the application of slight pressure to get a flat surface. Generally, silicon single crystal sample holders of 0.1 mm, 0.5 mm or 1.0 mm depth are used. The tube voltage and current are 40 kV and 40 mA, respectively. The X-ray diffractometer is equipped with a LynxEye detector. A variable divergence slight is used with a 3° window. The step size is 0.02° 2θ with a step time of 37 seconds. The samples are rotated at 0.5 rps during the measurement.

[2] = after two hours equilibration at 25° C.; resulting pH value 4.6
Experimental: Solubility Determinations:
Solubility determinations are carried out in pure water at 25±2° C. Suspensions with about 10 mg salt in 0.5 mL water are prepared and equilibrated for two hours before the solution phase is filtered off and tested by HPLC.
HPLC is carried out on an Agilent 1100 HPLC chromatograph equipped with a UV-vis detection unit. […] The column type used is a Waters XTerra MS C18, 250×4.6 mm, 5 μm (FK-CC14). The method as referenced above is an isocratic method using an aqueous ammonium acetate/acetic acid and methanol with a ratio of 55/45. The applied flow rate is 1.0 mL per minute, the injection volume is 20 microliter and the detection wavelength is 321 nm.

[3] = heating rate 10° C. per minute, dried sample
Experimental: Differential scanning calorimetry: DSC is carried out with a TA Instruments DSC Q2000 using hermetically sealed gold sample pans. The heating rate is 10° C. per minute. Samples are dried under nitrogen before sample pans are closed under nitrogen.

SMILES: Cc1nc(Nc2ncc(C(=O)Nc3c(C)cccc3Cl)s2)cc(N2CCN(CCO)CC2)n1.O=C(O)c1cccnc1 [Example 3, Dasatinib nicotinate]
- crystalline material by powder X-ray diffraction after storage [1]: no crystalline material is present

SMILES: Cc1nc(Nc2ncc(C(=O)Nc3c(C)cccc3Cl)s2)cc(N2CCN(CCO)CC2)n1.O=C1NS(=O)(=O)c2ccccc21 [Example 1, Dasatinib saccharinate]
- aqueous solubility [2]: 1330 µg/mL
- glass transition (DSC step) [3]: ~130 °C
- crystalline material by powder X-ray diffraction after storage [1]: no crystalline material was present

SMILES: Cc1nc(Nc2ncc(C(=O)Nc3c(C)cccc3Cl)s2)cc(N2CCN(CCO)CC2)n1.O=C1NS(=O)(=O)c2ccccc21 [Example 4, Dasatinib saccharinate]
- glass transition (DSC step) [3]: about 113 °C

SMILES: Cc1nc(Nc2ncc(C(=O)Nc3c(C)cccc3Cl)s2)cc(N2CCN(CCO)CC2)n1.O=C(O)CCCC(=O)O [Example 2, Dasatinib glutarate]
- crystalline material by powder X-ray diffraction after storage [1]: no crystalline material is present
